Our source for the TGI values is PubChem BioAssay (NCI).

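Growth conditions: 96-well plates. Treatment: test compound, 48 hours, 5 concentrations. Analysis: linear interpolation between bracketing concentrations; unreached endpoints set to highest concentration. TGI: total growth inhibition.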 A value given as a limit tells only on which side of the number the result lay.

Some test systems named below: ACHN renal; CCRF-CEM leukemia; COLO 205 colon; IGROV1 ovarian; M14 melanoma; OVCAR-3 ovarian; OVCAR-8 ovarian; SK-MEL-28 melanoma; TK-10 renal; U251 CNS.
Holding throughout (test): growth of human tumour cells (NCI), 48 h

Turning to `O=S(=O)(O)c1cccc2c(N=Nc3c(O)ccc4ccccc34)cccc12`, the TGI with ACHN renal, in the test with CCRF-CEM leukemia, in the test on COLO 205 colon, with IGROV1 ovarian, in the test on M14 melanoma and in the test on OVCAR-3 ovarian was greater than 100 µM throughout. The TGI in the test with OVCAR-8 ovarian, in the test with SK-MEL-28 melanoma, in the test on TK-10 renal and with U251 CNS was greater than 100 µM throughout.
Turning to `[O-][N+](CCO)(CCO)c1ncnc2nc[nH]c12`, the TGI in the test on ACHN renal, in the test with CCRF-CEM leukemia, with COLO 205 colon, in the test with IGROV1 ovarian, with M14 melanoma and in the test on OVCAR-3 ovarian was greater than 100 µM each time. In addition, the TGI with OVCAR-8 ovarian, in the test with SK-MEL-28 melanoma, in the test on TK-10 renal and in the test with U251 CNS was greater than 100 µM in each case.
For `CN1C2CCC1C(C(O)c1ccccc1[N+](=O)[O-])C(=O)C2` (stereo not given), the TGI with ACHN renal, with CCRF-CEM leukemia, with COLO 205 colon, with IGROV1 ovarian, in the test on M14 melanoma and in the test on OVCAR-3 ovarian was greater than 100 µM in each case. Moreover, the TGI in the test with OVCAR-8 ovarian, with SK-MEL-28 melanoma, in the test on TK-10 renal and with U251 CNS was greater than 100 µM in each case.
For the molecule `COc1ccc(/C=C(\C#N)c2nc(N)nc(N3N=C(C)CC3(C)C)n2)c(O)c1`, the TGI with ACHN renal came to 31 µM; in the test with CCRF-CEM leukemia it was 76.9 µM; in the test with COLO 205 colon, 30.9 µM; with IGROV1 ovarian, 56.4 µM; in the test with M14 melanoma it was 35.6 µM; in the test on OVCAR-3 ovarian, 28.3 µM. In addition, the TGI in the test with OVCAR-8 ovarian is greater than 100 µM; with SK-MEL-28 melanoma, 29.6 µM; in the test on TK-10 renal, 77.7 µM; with U251 CNS it was 94.1 µM.
As for `CC(=O)N(C)c1ccc2c(ccc[n+]2[O-])c1[N+](=O)[O-]`, the TGI in the test on ACHN renal, in the test on CCRF-CEM leukemia, in the test with COLO 205 colon, with IGROV1 ovarian, in the test on M14 melanoma and with OVCAR-3 ovarian was greater than 100 µM in each case. Also, the TGI in the test on OVCAR-8 ovarian, in the test on SK-MEL-28 melanoma, in the test with TK-10 renal and with U251 CNS was greater than 100 µM each time.
